From patent US20060100105A1, “Agents containing carboxylic acid and the use of the same in plant cultivation” (priority 2002, published 2006)

System: Winter oilseed rape (cv. Pronto)
Experiment: Shoot elongation in winter oilseed rape
Type: in vivo
Conditions: active ingredient alone
Protocol: The tank mixers employed in Example 1 are prepared by mixing an emulsion concentrate with a metconazole content of 90 g/l and an aqueous concentrate with mepiquat chloride content of 600 g/l using a magnetic stirrer (experiment T1).
Winter oilseed rape (cv. Pronto) was sown in autumn and approximately one month later treated as specified in Table 3. Shoot elongation and root development were assessed a few weeks later. The elongation results are compiled in Table 3.

Compound | shortening effect (in words)
CC1(C)CCC(Cc2ccc(Cl)cc2)C1(O)Cn1cncn1 (centres unmarked) [Metconazole, metconazole] | very pronounced
C[N+]1(C)CCCCC1.[Cl-] [mepiquat-chloride, N,N-dimethylpiperidinium chloride] | only results in some degree of shortening at scoring date 2
